# Test results: patent US8324227B2, “Thieno[2,3-D]-pyrimidin-4(3H)-one compounds with antifungal properties and process thereof” (FDC Limited, priority 2008, dated 2012)
# Experiments:
# Assay in all cases: Antifungal susceptibility, MIC by broth macro-dilution method
# C. albicans (ATCC 24433) = assay type: cell-based, Candida albicans; conditions: Candida albicans, ATCC24433, RPMI 1640 medium with MOPS buffer, end points after 48 hours, NI till x = no inhibition up to x, read-out: MIC against fungi, C. albicans (ATCC 24433)
# Experimental: (§1) In vitro evaluation of antifungal activity was performed by determining the minimum inhibitory concentration (MIC). Anti-fungal susceptibility testing of these anti-fungal compounds was done by broth dilution method using RPMI 1640 medium with MOPS buffer. Known anti-fungal agents like fluconazole and amphotericin-B were used as positive control. End points were determined after 48 hours visually and by using spectrophotometer wherever necessary. Different dilutions were, tried and various sets of experiments performed.
# [1] = system: F. proliferatum (ATCC 10052); assay type: cell-based, Fusarium proliferatum; conditions: Fusarium proliferatum, ATCC10052, RPMI 1640 medium with MOPS buffer, end points after 48 hours, NI till x = no inhibition up to x, read-out: MIC against fungi, F. proliferatum (ATCC 10052)
# Experimental: as §1
# A. niger (ATCC 16404) = assay type: cell-based, Aspergillus niger; conditions: Aspergillus niger, ATCC16404, RPMI 1640 medium with MOPS buffer, end points after 48 hours, NI till x = no inhibition up to x, read-out: MIC against fungi, A. niger (ATCC 16404)
# Experimental: as §1
MIC (C. albicans (ATCC 24433)) [µg/mL],MIC [1] [µg/mL],MIC (A. niger (ATCC 16404)) [µg/mL],Structure (SMILES)
0.03 to 0.06,> 4,> 4,"CCCCCc1cc2c(=O)n(CC(O)(Cn3cncn3)c3ccc(F)cc3F)cnc2s1 (stereo not drawn) [Compound 1-A04, 3-[2-(2,4-Difluorophenyl)-2-hydroxy-3-[1,2,4]-triazol-1-yl-propyl]-6-n-pentylthieno[2,3-d]pyrimidin-4(3H)-one]"
1 to 2,> 2,> 2,"CCCCCCCCCCc1cc2c(=O)n(CC(O)(Cn3cncn3)c3ccc(F)cc3F)cnc2s1 (stereo not drawn) [Compound 1-A16, 6-n-Decyl-3-[2-(2,4-difluorophenyl)-2-hydroxy-3-[1,2,4]triazol-1-yl-propyl]thieno[2,3-d]pyrimidin-4(3H)-one]"
